According to ChEMBL document CHEMBL1143650, “Synthesis of desthio prenylcysteine analogs: sulfur is important for biological activity” (Bioorg Med Chem Lett, 2005):

Experiments:
[1] = biological target: T1, Protein-S-isoprenylcysteine O-methyltransferase (Saccharomyces cerevisiae S288c, UniProt P32584); assay: Inhibitory concentration against isoprenyl-cysteine carboxyl methyltransferase by Casey method; Range 7 - 14 uM
T1 sequence (P32584 whole entry): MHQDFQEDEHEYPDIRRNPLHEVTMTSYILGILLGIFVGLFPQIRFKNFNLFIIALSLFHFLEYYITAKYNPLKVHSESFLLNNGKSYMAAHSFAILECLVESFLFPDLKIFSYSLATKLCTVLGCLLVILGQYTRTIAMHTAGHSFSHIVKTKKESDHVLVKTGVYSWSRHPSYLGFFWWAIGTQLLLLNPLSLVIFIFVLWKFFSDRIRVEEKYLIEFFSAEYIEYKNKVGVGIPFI

[2] = biological target: T1, Protein-S-isoprenylcysteine O-methyltransferase; assay: Inhibitory concentration against isoprenyl-cysteine carboxyl methyltransferase

IC50 [1] [µM] | IC50 [2] [µM] | Ki [2] [µM] | SMILES
14 | 44 | 17.1 | CC(=O)N[C@@H](CSC/C=C(\CC=C(C)C)CC/C=C(\C)CCC=C(C)C)C(=O)O
 |  | 4.6 | CC(C)=CCC/C(C)=C/CC/C(C)=C/CSCC(=O)O [FARNESYLTHIOACETIC ACID]
 |  | 13.2 | CC(=O)NC(C[S+]([O-])C/C=C(\C)CC/C=C(\C)CC/C=C(\C)CCC=C(C)C)C(=O)O (stereo not given)
